Reference: the supplement of paper PMC10307832

Assays:
Experiment in all cases: relative viability (nuclei count vs DMSO), 5 days (fraction); higher = more cells survive
VE-821 + Dasatinib = compound: CS(=O)(=O)c1ccc(-c2cnc(N)c(C(=O)Nc3ccccc3)n2)cc1 [VE-821] + Cc1nc(Nc2ncc(C(=O)Nc3c(C)cccc3Cl)s2)cc(N2CCN(CCO)CC2)n1 [Dasatinib] (partner 0.075 µM)
Procedure, shortened: (§1)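 One day after seeding in 1536-well plates, lung cancer cell lines were dosed by pin tool. Dosing was either single-drug or a fixed anchor-drug dose plus five library-drug doses (not always all listed) in √10 steps. After 5 days, nuclei were stained in one fix-and-stain step and counted on 4× images, and relative viability is the nuclei count of treated wells over that of vehicle wells, given as the median of duplicate plates.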

VE-821 + Decitabine = compound: CS(=O)(=O)c1ccc(-c2cnc(N)c(C(=O)Nc3ccccc3)n2)cc1 [VE-821] + Nc1ncn([C@H]2C[C@H](O)[C@@H](CO)O2)c(=O)n1 [Decitabine] (partner 2 µM)
Procedure, shortened: as §1

Vismodegib + Navitoclax = compound: CS(=O)(=O)c1ccc(C(=O)Nc2ccc(Cl)c(-c3ccccn3)c2)c(Cl)c1 [Vismodegib] + CC1(C)CCC(c2ccc(Cl)cc2)=C(CN2CCN(c3ccc(C(=O)NS(=O)(=O)c4ccc(N[C@H](CCN5CCOCC5)CSc5ccccc5)c(S(=O)(=O)C(F)(F)F)c4)cc3)CC2)C1 [Navitoclax] (partner 0.5 µM)
Procedure, shortened: as §1

Ruxolitinib + Pictilisib = compound: N#CC[C@H](C1CCCC1)n1cc(-c2ncnc3[nH]ccc23)cn1 [Ruxolitinib] + CS(=O)(=O)N1CCN(Cc2cc3nc(-c4cccc5[nH]ncc45)nc(N4CCOCC4)c3s2)CC1 [Pictilisib] (partner 1 µM)
Procedure, shortened: as §1

With UMC-11 the relative viability (VE-821 + Dasatinib; first compound 0.08 µM) was 0.553, the relative viability (VE-821 + Dasatinib; first compound 0.253 µM) was 0.44 and the relative viability (VE-821 + Dasatinib; first compound 0.8 µM) was 0.516. For the same cell line, the relative viability (VE-821 + Dasatinib; first compound 2.53 µM) was 0.524, the relative viability (VE-821 + Dasatinib; first compound 8 µM) was 0.374 and the relative viability (VE-821 + Decitabine; first compound 0.08 µM) was 0.687. For the same cell line, the relative viability (VE-821 + Decitabine; first compound 0.253 µM) was 0.617, the relative viability (VE-821 + Decitabine; first compound 0.8 µM) was 0.583 and the relative viability (VE-821 + Decitabine; first compound 2.53 µM) was 0.664. The relative viability (VE-821 + Decitabine; first compound 8 µM) was 0.479, the relative viability (Vismodegib + Navitoclax; first compound 0.08 µM) was 0.321 and the relative viability (Vismodegib + Navitoclax; first compound 0.253 µM) was 0.313. It also gave a relative viability (Vismodegib + Navitoclax; first compound 0.8 µM) of 0.296, a relative viability (Vismodegib + Navitoclax; first compound 2.53 µM) of 0.29 and a relative viability (Vismodegib + Navitoclax; first compound 8 µM) of 0.305. For the same cell line, the relative viability (Ruxolitinib + Pictilisib; first compound 0.08 µM) was 0.738, the relative viability (Ruxolitinib + Pictilisib; first compound 0.253 µM) was 0.853 and the relative viability (Ruxolitinib + Pictilisib; first compound 0.8 µM) was 1.05. The relative viability (Ruxolitinib + Pictilisib; first compound 2.53 µM) was 0.958 and the relative viability (Ruxolitinib + Pictilisib; first compound 8 µM) was 0.927.
